“Also recorded” adds a separate entry of the source.
Legend:
[1] = test system: Human melanoma cells LU1205; experiment: Caspase and PARP cleavage immunoblot in LU1205 cells; format: cell-based; settings: peptides by transfection, UCN-01 (5 μm) 24 hours
Experimental: (§1) Human melanoma cells LU1205 were transfected with the nucleic acid molecules that encode either ATF2^51-100 peptide or ATF2^51-60 peptide. Twenty-four hours after transfection, cells were treated with of UCN-01 (5 μm) for 24 hours. Immunoblotting analysis was performed using caspase 9 and PARP antibodies, and β-actin was used as a loading control (FIG. 6A). The same experiment was performed in SW-1 cells (FIG. 6B). Stars point to the position of the uncleaved form whereas arrows point to the cleaved products.
(§2) Effect on Apoptosis. Assessed next was the degree of apoptosis in SW1 cells under normal growth (spontaneous) as well as following treatment with chemotherapeutic drugs. Cells were analyzed to detect spontaneous (basal) or induced apoptosis [following treatment with the kinase inhibitor UCN-01 (kindly provided by NCI repository) for 36 hours]. Apoptosis was measured by using FACS (Ivanov et al., Mol. Cell, 2001, 7:517-28) to quantify the percentage of hypodiploid nuclei undergoing DNA fragmentation. Nucleation as a marker of apoptosis was monitored via DAPI staining of cells at indicated time points after their treatment. Caspase activity was monitored by immunoblots using antibodies to caspase 9 (Santa Cruz). PARP cleavage was monitored by corresponding antibodies (PharMingen).

SW-1 cells = experiment: Caspase and PARP cleavage immunoblot in SW-1 cells; format: cell-based, mouse; settings: peptides by transfection, UCN-01 (5 μm) 24 hours
Experimental: as §1, §2

Jun2-Luc = Jun2-Luc luciferase reporter assay in SW1 cells; format: cell-based, mouse; settings: SW1 cells expressing peptide, luciferase after 18 hours
Experimental: (§3) SW1 cells constitutively expressing the indicated ATF2 peptides were transfected with either TRE-Luc (FIG. 5A) or with Jun2-Luc (FIG. 5B), and proteins were prepared for analysis of luciferase activity after 18 hours. Analysis was performed in duplicate, and the data reflect three independent experiments. SW1 cells expressing the ATF2 peptides were analyzed to establish the degree of spontaneous (basal) apoptosis as well as apoptosis 24 hours following treatment with the chemotherapeutic drug UCN-01 (FIG. 5C). The data represent triplicate analysis reproduced three times.
(§4) Alteration of ATF2 Transcriptional Activity. Assessed next was whether the short peptide caused any change in transcriptional activity mediated by ATF2 and its heterodimeric partners, using the TRE and Jun2 promoter sequences linked to the Luciferase marker gene. These reporter constructs (0.3 μg) were cotransfected with the respective expression vectors into melanoma cells (5×10^5) using Lipofectamine (Invitrogen). Luciferase activity was measured using the Luciferase assay system (Promega).

SW1 melanoma cells = experiment: Apoptosis of SW1 cells by FACS (hypodiploid nuclei); format: cell-based, mouse; settings: SW1 cells expressing peptide, treated with UCN-01; given as control-to-peptide increase
Experimental: as §3, §2

TRE-Luc = TRE-Luc luciferase reporter assay in SW1 cells; format: cell-based, mouse; settings: SW1 cells expressing peptide, luciferase after 18 hours
Experimental: as §3, §4

SW1 cells = experiment: Tumor growth of SW1 cells constitutively expressing ATF2 peptides, injected subcutaneously; format: in vivo, mouse; settings: constitutive expression, 18 days
Experimental: SW1 cells, which constitutively express the peptides indicated in FIG. 4A, were analyzed to detect expression of ATF2 peptides at the RNA level using RT-PCR. The indicated MW bands reflect the expected size product. SW1 cells (10^6) were injected subcutaneously into […] mice and tumor growth was monitored for 18 days, at which point tumors were removed and their size carefully assessed (FIG. 4B). Each group included 6 animals and each experiment was performed twice (P<0.01; T-test).
Inhibition of Tumor Growth. To examine the importance of the JNK association domain on ATF2, the possible role of a smaller peptide containing an intact JNK binding site (i.e., amino acids M^51T^52 of ATF2) was examined. To this end, three peptides of differing sizes (amino acids 51-80, 51-70, and 51-60) were compared to ATF2^51-100 peptide in their ability to inhibit tumor growth of SW1 cells in vivo. RT-PCR reactions confirmed the expression of these peptides' transcripts in the SW1 cells (FIG. 4A). […] However, expression of the 50aa peptide in these cells (constitutive expression based on selection of drug-resistant cells) decreased tumor size to 300 mm^3. Strikingly, constitutive expression of each of the 3 shorter peptides also elicited inhibition of melanoma growth that varied from 400-600 mm^3 (FIG. 4B). […] Further evaluation was performed on this 10 amino acid peptide.

JNK-c-Jun association = molecular target: T1, JNK-c-Jun association (Homo sapiens, UniProt P45984); experiment: In vitro association of bead-bound JNK with c-Jun; format: binding; settings: 35S-labeled in vitro translated c-Jun, synthetic peptide
T1 construct: made in house; host or cells: JNK2 from transfected 293T cells; c-Jun from the TNT-coupled reticulocyte lysate system (Promega)
Experimental: (§5) HA-JNK was transfected into 293T cells and 24 h later JNK was immunoprecipitated and bound to protein G beads. Bead-bound JNK was incubated with in vitro-translated c-Jun or ATF2 in the absence or presence of the wt or mutant form of ATF2^51-60. Following incubation bead-bound JNK was washed (see Example 4) and the amount of bound Jun or ATF2 was assessed via SDS-PAGE analysis subjected to autoradiography (Panel A) and quantification with the aid of a phosphor imager (Panels B and C).
(§6) Effect on JNK/Jun Association. The short peptide's ability to elicit major changes in TRE-dependent transcription and spontaneous apoptosis led to an assessment of possible changes in the JNK-Jun association. Flag JNK2 expressed in 293T cells extracted, immunopurified with anti-Flag antibody bound to Protein G agarose beads were first incubated with 3 mg/ml of BSA in phosphate-buffered saline for 2 h, followed by incubation at 4° C. for 2 h with ^35S-labeled in vitro translated c-Jun or ATF2 (TNT-coupled reticulocyte lysate system, Promega) in the presence of WT or mutant peptide. Bead-bound material was subjected to three washes with 20 mM Tris [pH 7.5], 150 mM NaCl, 1 mM EDTA, 1 mM EGTA, 0.5% NP-40, 1 mM NaVO4, and 1 mM DTT supplemented with protease inhibitors. […] Binding was detected by autoradiography and quantified with the aid of a phosphorimager. […]

JNK-ATF2 association = molecular target: T2, JNK-ATF2 association (Homo sapiens, UniProt P45984); experiment: In vitro association of bead-bound JNK with ATF2; format: binding; settings: 35S-labeled in vitro translated ATF2, synthetic peptide
T2 construct: made in house; host or cells: JNK2 from transfected 293T cells; ATF2 from the TNT-coupled reticulocyte lysate system (Promega)
Experimental: as §5, §6

Row | JNK-ATF2 association (JNK-ATF2 association) | Molecule | PARP cleavage [1] | activation of caspase 9 (cleavage fragments) [1] | PARP cleavage (SW-1 cells) | activation of caspase 9 (cleavage fragments) (SW-1 cells) | Jun2-Luc transcriptional activity (Jun2-Luc) | Jun2-Luc transcriptional activity (Jun2-Luc; listed as 51-60 amino acid peptide) | UCN-01-induced apoptosis (SW1 melanoma cells) | TRE-Luc activity (TRE-Luc) | inhibition of SW1 melanoma growth in vivo (SW1 cells) | inhibition of SW1 melanoma growth in vivo (SW1 cells; listed as 51-60) | association between JNK and c-Jun (JNK-c-Jun association)
1 | – | CN[C@@H]1C[C@H]2O[C@@](C)([C@@H]1OC)n1c3ccccc3c3c4c(c5c6ccccc6n2c5c31)C(=O)N[C@@H]4O [UCN-01, reference compound] | PARP cleavage was observed | caused activation of caspase 9 | PARP cleavage was observed | caused activation of caspase 9 | – | – | – | – | – | – | –
2 | not observed | ATF2^51-60: ATF2 peptide from amino acid residue 51 to 60 (about a 10 amino acid peptide); expressed in cells or synthesized (MTLKFGPARN; UniProt P15336 51-60, looked up, fragment) | – | activation of caspase 9 even prior to treatment with UCN-01 | – | activation of caspase 9 even prior to treatment with UCN-01 | does not significantly affect Jun2-Luc activity | no longer inhibited and slightly elevated | 20-40% | efficient in increasing TRE-Luc activities; also recorded: increases TRE-Luc activity | inhibits melanoma growth in vivo | efficient inhibition close to that observed with the 50 amino acid peptide | increases the in vitro association between JNK and c-Jun in a dose-dependent manner; also recorded: increases Jun association with JNK
3 | – | ATF2^51-70: ATF2 peptide from amino acid residue 51 to 70 (about a 20 amino acid peptide) (MTLKFGPARNDSVIVADQTP; UniProt P15336 51-70, looked up, fragment) | – | – | – | – | – | – | – | – | efficient inhibition close to that observed with the 50 amino acid peptide | – | –

— patent US20090281025A1, “INHIBITION OF TUMOR GROWTH AND METASTASIS BY ATF2-DERIVED PEPTIDES” (Mount Sinai School Of Medicine of New York University, priority 2004, published 2009)
